Measured values taken from patent publication US4740233A, “Substituted 1,2,4-triazolo[1,5-a]-pyrimidine-2-sulfonamides and compositions and methods of controlling undesired vegetation and suppressing the nitrification of ammonium nitrogen in soil” (The Dow Chemical Company, priority 1986, dated 1988).

Tests used:
cotton = test: Postemergent control of plant species; format: in vivo, Gossypium spp.; conditions: Gossypium hirsutum, post-emergence, 336 h, read-out: percent postemergent control
Method: (§1) In representative operations, each compound to be utilized in a series of tests is dissolved in acetone to one-half of the final volume (twice the final concentration) to be used and the acetone solution in each case is admixed with an equal volume of water containing 0.1 percent by weight of surface active material. The compositions, generally in the nature of an emulsion, were employed to spray separate respective plant species which had been grown to a 2-4 leaf stage in soil of good nutrient content in a greenhouse. The various beds were positioned side by side and exposed to substantially identical conditions of temperature and light. Each bed was maintained so as to prevent any interaction with test compounds in different seed beds. Other plants were left untreated to serve as controls. After treatment, the plants were maintained for about two weeks under greenhouse conditions conducive for good plant growth and watered as necessary. Control refers to the reduction in growth compared to the observed results of the same untreated species.

rape = test: Postemergent control of plant species; format: in vivo, Brassica napus; conditions: Brassica napus, post-emergence, 336 h, read-out: percent postemergent control
Method: as §1

soybean = test: Postemergent control of plant species; format: in vivo, Glycine max.; conditions: Glycine max, post-emergence, 336 h, read-out: percent postemergent control
Method: as §1

sugar beet = test: Postemergent control of plant species; format: in vivo, Beta saccharifera; conditions: Beta vulgaris, post-emergence, 336 h, read-out: percent postemergent control
Method: as §1

jimsonweed = test: Postemergent control of plant species; format: in vivo, Datura stramonium; conditions: Datura stramonium, post-emergence, 336 h, read-out: percent postemergent control
Method: as §1

annual morning glory = test: Postemergent control of plant species; format: in vivo, Ipomoea spp.; conditions: Ipomoea, post-emergence, 336 h, read-out: percent postemergent control
Method: as §1

pigweed = test: Postemergent control of plant species; format: in vivo, Amaranthus spp.; conditions: Amaranthus retroflexus, post-emergence, 336 h, read-out: percent postemergent control
Method: as §1

velvetleaf = test: Postemergent control of plant species; format: in vivo, Abutilon theophrasti; conditions: Abutilon theophrasti, post-emergence, 336 h, read-out: percent postemergent control
Method: as §1

corn = test: Postemergent control of plant species; format: in vivo, Zea mays; conditions: Zea mays, post-emergence, 336 h, read-out: percent postemergent control
Method: as §1

rice [1] = test: Postemergent control of plant species; format: in vivo, Oryza sativa; conditions: Oryza sativa, post-emergence, 336 h, read-out: percent postemergent control
Method: as §1

sorghum = test: Postemergent control of plant species; format: in vivo, Sorghum vulgare; conditions: Sorghum, post-emergence, 336 h, read-out: percent postemergent control
Method: as §1

wheat = test: Postemergent control of plant species; format: in vivo, Triticum aestivum; conditions: Triticum aestivum, post-emergence, 336 h, read-out: percent postemergent control
Method: as §1

barnyardgrass [2] = test: Postemergent control of plant species; format: in vivo, Echinochloa crusgalli; conditions: Echinochloa crus-galli, post-emergence, 336 h, read-out: percent postemergent control
Method: as §1

crabgrass = test: Postemergent control of plant species; format: in vivo, Digitaria spp.; conditions: Digitaria sanguinalis, post-emergence, 336 h, read-out: percent postemergent control
Method: as §1

yellow foxtail = test: Postemergent control of plant species; format: in vivo, Setaria lutescens; conditions: Setaria, post-emergence, 336 h, read-out: percent postemergent control
Method: as §1

johnson grass = test: Postemergent control of plant species; format: in vivo, Sorghum halepense; conditions: Sorghum halepense, post-emergence, 336 h, read-out: percent postemergent control
Method: as §1

wild oats = test: Postemergent control of plant species; format: in vivo, Avena fatua; conditions: Avena fatua, post-emergence, 336 h, read-out: percent postemergent control
Method: as §1

yellow nutsedge [3] = test: Postemergent control of plant species; format: in vivo, Cyperus esculentus; conditions: Cyperus, post-emergence, 336 h, read-out: percent postemergent control
Method: as §1

[4] = system: nitrification of ammonium nitrogen; test: Suppression of nitrification of ammonium nitrogen in soil; conditions: 27° C.
Method in brief: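 Value is % NH4-N remaining after a two-week, 27° C incubation of treated soil held at 1/3 bar tension moisture. Nitrate was measured with an ion-selective electrode after extraction with ammonium sulfate solution and 10 min shaking.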

rice [5] = test: Control of aquatic plant species (paddy water); format: in vivo, Oryza sativa; conditions: Oryza sativa, 216 h, nine days, read-out: Percent control
Method: (§2) In testing for such utility, the plant species to be tested were transplanted into 16 oz. containers into about 2 inches of soil when they were in the 1-2 inch stage and then flooded to a depth of about 1 inch. An acetone concentrate of the chemical to be tested was then injected into the paddy water, the volume injected being varied as desired to provide the desired concentration. Percent control was evaluated nine days after application.

barnyardgrass [6] = test: Control of aquatic plant species (paddy water); format: in vivo, Echinochloa crusgalli; conditions: Echinochloa crus-galli, 216 h, nine days, read-out: Percent control
Method: as §2

sprangletop = test: Control of aquatic plant species (paddy water); format: in vivo, Leptochloa filiformis; conditions: Leptochloa filiformis, 216 h, nine days, read-out: Percent control
Method: as §2

yellow nutsedge [7] = test: Control of aquatic plant species (paddy water); format: in vivo, Cyperus esculentus; conditions: Cyperus, 216 h, nine days, read-out: Percent control
Method: as §2

Row | Structure (SMILES) | plant injury at 500 ppm (cotton) | plant injury at 500 ppm (rape) | plant injury at 500 ppm (soybean) | plant injury at 500 ppm (sugar beet) | pest or weed control at 500 ppm (jimsonweed) | pest or weed control at 500 ppm (annual morning glory) | pest or weed control at 500 ppm (pigweed) | pest or weed control at 500 ppm (velvetleaf) | plant injury at 500 ppm (corn) | plant injury at 500 ppm (rice [1]) | plant injury at 500 ppm (sorghum) | plant injury at 500 ppm (wheat) | pest or weed control at 500 ppm (barnyardgrass [2]) | pest or weed control at 500 ppm (crabgrass) | pest or weed control at 500 ppm (yellow foxtail) | pest or weed control at 500 ppm (johnson grass) | pest or weed control at 500 ppm (wild oats) | pest or weed control at 500 ppm (yellow nutsedge [3]) | % NH4-N Remaining After 2 Weeks Incubation ([4]; 0.06 ppm) | % NH4-N Remaining After 2 Weeks Incubation ([4]; 0.25 ppm) | other results
1 | COC(=O)c1cccc(C)c1N(C)S(=O)(=O)c1nc2nc(C)cc(C)n2n1 [Compound 261] | 60% | 95% | 90% | 90% | 95% | 90% | 65% | 95% | 0% | 0% | 30% | 0% | 20% | 10% | 95% | 100% | 0% | 0% | 0% | 0% | % NH4-N Remaining After 2 Weeks Incubation ([4]; 1 ppm): 21%; % NH4-N Remaining After 2 Weeks Incubation ([4]; 4 ppm): 18%
2 | Cc1cc(C)n2nc(S(=O)(=O)N(Cc3ccccc3)c3c(Cl)cccc3Cl)nc2n1 [Compound 265] | 0% | 60% | 40% | 80% | 0% | 60% | 70% | 0% | 0% | 0% | 0% | 0% | 0% | 0% | 0% | 0% | 0% | 0% | 0% | 0% | % NH4-N Remaining After 2 Weeks Incubation ([4]; 1 ppm): 0%; % NH4-N Remaining After 2 Weeks Incubation ([4]; 4 ppm): 17%
3 | O=S(=O)(Nc1c(Cl)cccc1Cl)c1nc2ncc(Cl)cn2n1 [Compound 114] |  |  |  |  |  |  |  |  |  |  |  |  |  |  |  |  |  |  |  |  | pest or weed control at 250 g/ha (rice [5]; 0.25 Kg/Ha): 0%; pest or weed control at 1000 g/ha (rice [5]; 1.0 Kg/Ha): 70%; pest or weed control at 250 g/ha (barnyardgrass [6]; 0.25 Kg/Ha): 80%; pest or weed control at 1000 g/ha (barnyardgrass [6]; 1.0 Kg/Ha): 95%; pest or weed control at 250 g/ha (sprangletop; 0.25 Kg/Ha): 0%; pest or weed control at 1000 g/ha (sprangletop; 1.0 Kg/Ha): 0%; pest or weed control at 250 g/ha (yellow nutsedge [7]; 0.25 Kg/Ha): 65%; pest or weed control at 1000 g/ha (yellow nutsedge [7]; 1.0 Kg/Ha): 90%
4 | CCOC(=O)CN(c1c(C)cccc1C(=O)OC)S(=O)(=O)c1nc2nc(C)cc(C)n2n1 [Compound 266] | 10% | 75% | 80% | 30% | 90% | 85% | 25% | 75% | 0% | 40% | 0% | 0% | 75% | 70% | 80% | 0% | 0% | 0% | 0% | 0% | % NH4-N Remaining After 2 Weeks Incubation ([4]; 1 ppm): 2%; % NH4-N Remaining After 2 Weeks Incubation ([4]; 4 ppm): 13%
5 | C=CCN(c1c(Cl)cccc1Cl)S(=O)(=O)c1nc2nc(C)cc(C)n2n1 [Compound 263] | 50% | 100% | 0% | 100% | 80% | 80% | 90% | 40% | 0% | 85% | 70% | 0% | 40% | 90% | 95% | 100% | 0% | 0% | 0% | 0% | % NH4-N Remaining After 2 Weeks Incubation ([4]; 1 ppm): 87%; % NH4-N Remaining After 2 Weeks Incubation ([4]; 4 ppm): 11%
6 | CSc1cccc(Cl)c1NS(=O)(=O)c1nc2nc(C)cc(C)n2n1 [Compound 69] | 90% | 90% | 40% | 100% | 90% | 80% | 100% | 85% | 90% | 0% | 80% | 0% | 80% | 80% | 90% | 95% | 0% | 80% |  |  | 
7 | Cc1cc(C)n2nc(S(=O)(=O)N(C)c3c(Cl)cccc3Cl)nc2n1 [Compound 260, 5,7,N-trimethyl-N-(2,6-dichlorophenyl)-1,2,4-triazolo[1,5-a]pyrimidine-2-sulfonamide] | 80% | 95% | 90% | 100% | 95% | 40% | 45% | 90% | 0% | 0% | 25% | 0% | 50% | 0% | 90% | 95% | 0% | 0% | 0% | 14% | % NH4-N Remaining After 2 Weeks Incubation ([4]; 1 ppm): 37%; % NH4-N Remaining After 2 Weeks Incubation ([4]; 4 ppm): 45%
